Assay results reported in patent US20250353891A1 (MEDIMMUNE LIMITED, priority 2022, published 2025).
Starred links: 1 amine or outer side, 2 acyl side, 3 side chain; linkers in the order of their positions; H or OH if unused. Non-standard residues stand in square brackets, D forms with d. Residues, ends and D or L forms follow the SMILES beside them. Groups on a side chain read outwards from the residue. *: point of attachment. C18 diacid = O=C(O)CCCCCCCCCCCCCCCCC(=O)*; γGlu = O=C(O)[C@H](CCC(=O)[*:2])N[*:1]; αMeF = C[C@](N)(Cc1ccccc1)C(=O)O; AEEA = NCCOCCOCC(=O)O; Aib = CC(C)(N)C(=O)O

Key:
[1] = target: human GLP-1 receptor (hGLP-1R) (Homo sapiens, UniProt P43220); assay: cAMP production (HTRF) in CHO cells expressing hGLP-1R; type: cell-based; parameters: expressed in transfected cells; settings: for EC50: Table 6, peptides modified at position 17, cAMP in CHO hGLP-1R cells, geometric mean, read-out: hGLP-1R EC50; for % Relative Potency Ratio: Table 6, % GLP-1R activity relative to GLP-1 / % GlucR activity relative to glucagon
How it was run: (§1)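 Cells were resuspended in assay buffer at batch-optimized density, typically 1×10^5 cells/mL for hGLP-1R and 2×10^5 cells/mL for hGCGR. After 30 min incubation at room temperature with compound, cAMP was measured by two-step HTRF. EC50 values came from 4-parameter logistic fits of % Delta F.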

[2] = target: human glucagon receptor (hGCGR) (Homo sapiens, UniProt P47871); assay: cAMP production (HTRF) in CHO cells expressing hGCGR; type: cell-based; parameters: expressed in transfected cells; settings: Table 6, peptides modified at position 17; cAMP in CHO hGCGR cells; geometric mean; read-out: hGluc-R EC50
How it was run: as §1

Sequence of human glucagon receptor (hGCGR) (P47871 26-477): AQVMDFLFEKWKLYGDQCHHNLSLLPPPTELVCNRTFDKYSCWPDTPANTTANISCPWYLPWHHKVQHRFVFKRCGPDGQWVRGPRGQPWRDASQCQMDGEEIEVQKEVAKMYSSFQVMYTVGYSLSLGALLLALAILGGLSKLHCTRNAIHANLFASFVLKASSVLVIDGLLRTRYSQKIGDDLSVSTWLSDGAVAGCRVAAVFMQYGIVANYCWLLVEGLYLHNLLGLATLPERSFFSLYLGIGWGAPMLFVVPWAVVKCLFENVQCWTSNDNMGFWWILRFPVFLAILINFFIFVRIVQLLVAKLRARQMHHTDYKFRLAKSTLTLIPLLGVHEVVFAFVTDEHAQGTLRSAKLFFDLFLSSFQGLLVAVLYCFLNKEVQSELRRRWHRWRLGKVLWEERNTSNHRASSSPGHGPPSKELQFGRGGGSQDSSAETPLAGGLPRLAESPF
Sequence of human GLP-1 receptor (hGLP-1R) (P43220 24-463): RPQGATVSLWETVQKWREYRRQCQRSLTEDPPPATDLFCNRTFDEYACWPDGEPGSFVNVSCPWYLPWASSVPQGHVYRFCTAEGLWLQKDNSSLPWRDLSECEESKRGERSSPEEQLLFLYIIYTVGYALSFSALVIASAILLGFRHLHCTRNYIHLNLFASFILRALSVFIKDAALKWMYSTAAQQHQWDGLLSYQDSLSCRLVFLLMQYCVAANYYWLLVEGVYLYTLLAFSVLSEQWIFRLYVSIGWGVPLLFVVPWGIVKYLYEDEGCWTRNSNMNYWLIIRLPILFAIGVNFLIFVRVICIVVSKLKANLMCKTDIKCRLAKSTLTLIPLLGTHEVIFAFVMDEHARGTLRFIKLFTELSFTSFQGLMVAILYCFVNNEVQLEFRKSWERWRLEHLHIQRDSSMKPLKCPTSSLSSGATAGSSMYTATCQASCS

SMILES | EC50 [1] [nM] | % Relative Potency Ratio [1] | EC50 [2] [nM]
CC(C)C[C@H](NC(=O)[C@H](Cc1c[nH]c2ccccc12)NC(=O)[C@H](CCCNC(=N)N)NC(=O)[C@@H](NC(=O)[C@H](Cc1ccccc1)NC(=O)[C@H](CC(=O)O)NC(=O)[C@H](CCC(N)=O)NC(=O)[C@H](C)NC(=O)[C@H](CCCNC(=N)N)NC(=O)[C@H](CCCCNC(=O)COCCOCCNC(=O)COCCOCCNC(=O)CC[C@H](NC(=O)CCCCCCCCCCCCCCCCC(=O)O)C(=O)O)NC(=O)[C@H](CCC(=O)O)NC(=O)[C@H](CC(=O)O)NC(=O)[C@H](CC(C)C)NC(=O)[C@](C)(Cc1ccccc1)NC(=O)[C@H](CCCCN)NC(=O)[C@H](CO)NC(=O)[C@@H](NC(=O)[C@H](CC(=O)O)NC(=O)[C@H](CO)NC(=O)[C@@H](NC(=O)[C@H](Cc1ccccc1)NC(=O)[C@@H](NC(=O)CNC(=O)[C@H](CCC(N)=O)NC(=O)C(C)(C)NC(=O)[C@@H](N)Cc1c[nH]cn1)[C@@H](C)O)[C@@H](C)O)C(C)C)C(C)C)C(=O)N[C@@H](CC(C)C)C(=O)NC(C)(C)C(=O)N[C@H](C(=O)N[C@@H](CCC(=O)O)C(=O)O)[C@@H](C)O [Peptide 170] (H-H[Aib]QGTFTSDVSK[αMeF]LDEK([AEEA-AEEA-γGlu-C18 diacid])RAQDFVRWLL[Aib]TE-OH; N-terminus assumed) | 0.148 | 11.2 | 0.836
CC(C)C[C@H](NC(=O)[C@H](Cc1c[nH]c2ccccc12)NC(=O)[C@H](CCCNC(=N)N)NC(=O)[C@@H](NC(=O)[C@H](Cc1ccccc1)NC(=O)[C@H](CC(=O)O)NC(=O)[C@H](CCC(N)=O)NC(=O)[C@H](C)NC(=O)[C@H](CCCNC(=N)N)NC(=O)[C@H](CCCCNC(=O)COCCOCCNC(=O)COCCOCCNC(=O)CC[C@H](NC(=O)CCCCCCCCCCCCCCCCC(=O)O)C(=O)O)NC(=O)[C@H](CO)NC(=O)[C@H](CC(=O)O)NC(=O)[C@H](CC(C)C)NC(=O)[C@](C)(Cc1ccccc1)NC(=O)[C@H](CCCCN)NC(=O)[C@H](CO)NC(=O)[C@@H](NC(=O)[C@H](CC(=O)O)NC(=O)[C@H](CO)NC(=O)[C@@H](NC(=O)[C@H](Cc1ccccc1)NC(=O)[C@@H](NC(=O)CNC(=O)[C@H](CCC(N)=O)NC(=O)C(C)(C)NC(=O)[C@@H](N)Cc1c[nH]cn1)[C@@H](C)O)[C@@H](C)O)C(C)C)C(C)C)C(=O)N[C@@H](CCC(=O)O)C(=O)NC(C)(C)C(=O)N[C@H](C(=O)N[C@@H](CCC(=O)O)C(=O)O)[C@@H](C)O [Peptide 171] (H-H[Aib]QGTFTSDVSK[αMeF]LDSK([AEEA-AEEA-γGlu-C18 diacid])RAQDFVRWLE[Aib]TE-OH; N-terminus assumed) | 0.107 | 7.0 | 0.376
CC(C)C[C@H](NC(=O)[C@H](Cc1c[nH]c2ccccc12)NC(=O)[C@H](CCCNC(=N)N)NC(=O)[C@@H](NC(=O)[C@H](Cc1ccccc1)NC(=O)[C@H](CC(=O)O)NC(=O)[C@H](CCC(N)=O)NC(=O)[C@H](C)NC(=O)[C@H](CCCNC(=N)N)NC(=O)[C@H](CCCCNC(=O)COCCOCCNC(=O)COCCOCCNC(=O)CC[C@H](NC(=O)CCCCCCCCCCCCCCCCC(=O)O)C(=O)O)NC(=O)[C@H](CO)NC(=O)[C@H](CCC(=O)O)NC(=O)[C@H](CC(C)C)NC(=O)[C@](C)(Cc1ccccc1)NC(=O)[C@H](CCCCN)NC(=O)[C@H](CO)NC(=O)[C@@H](NC(=O)[C@H](CC(=O)O)NC(=O)[C@H](CO)NC(=O)[C@@H](NC(=O)[C@H](Cc1ccccc1)NC(=O)[C@@H](NC(=O)CNC(=O)[C@H](CCC(N)=O)NC(=O)C(C)(C)NC(=O)[C@@H](N)Cc1c[nH]cn1)[C@@H](C)O)[C@@H](C)O)C(C)C)C(C)C)C(=O)N[C@@H](CC(C)C)C(=O)NC(C)(C)C(=O)N[C@H](C(=O)N[C@@H](CCC(=O)O)C(=O)O)[C@@H](C)O [Peptide 172] (H-H[Aib]QGTFTSDVSK[αMeF]LESK([AEEA-AEEA-γGlu-C18 diacid])RAQDFVRWLL[Aib]TE-OH; N-terminus assumed) | 0.213 | 11.8 | 1.27
CC(C)C[C@H](NC(=O)[C@H](Cc1c[nH]c2ccccc12)NC(=O)[C@H](CCCNC(=N)N)NC(=O)[C@@H](NC(=O)[C@H](Cc1ccccc1)NC(=O)[C@H](CC(=O)O)NC(=O)[C@H](CCC(N)=O)NC(=O)[C@H](C)NC(=O)[C@H](CCCNC(=N)N)NC(=O)[C@H](CCCCNC(=O)COCCOCCNC(=O)COCCOCCNC(=O)CC[C@H](NC(=O)CCCCCCCCCCCCCCCCC(=O)O)C(=O)O)NC(=O)[C@@H](NC(=O)[C@H](CC(=O)O)NC(=O)[C@H](CC(C)C)NC(=O)[C@](C)(Cc1ccccc1)NC(=O)[C@H](CCCCN)NC(=O)[C@H](CO)NC(=O)[C@@H](NC(=O)[C@H](CC(=O)O)NC(=O)[C@H](CO)NC(=O)[C@@H](NC(=O)[C@H](Cc1ccccc1)NC(=O)[C@@H](NC(=O)CNC(=O)[C@H](CCC(N)=O)NC(=O)C(C)(C)NC(=O)[C@@H](N)Cc1c[nH]cn1)[C@@H](C)O)[C@@H](C)O)C(C)C)[C@@H](C)O)C(C)C)C(=O)N[C@@H](CC(C)C)C(=O)NC(C)(C)C(=O)N[C@H](C(=O)N[C@@H](CCC(=O)O)C(=O)O)[C@@H](C)O [Peptide 174] (H-H[Aib]QGTFTSDVSK[αMeF]LDTK([AEEA-AEEA-γGlu-C18 diacid])RAQDFVRWLL[Aib]TE-OH; N-terminus assumed) | 0.127 | 6.5 | 0.42

Further lines, results first:

EC50 [1] [nM] | % Relative Potency Ratio [1] | EC50 [2] [nM] | SMILES
0.134 | 12.9 | 0.874 | CC(C)C[C@H](NC(=O)[C@H](Cc1c[nH]c2ccccc12)NC(=O)[C@H](CCCNC(=N)N)NC(=O)[C@@H](NC(=O)[C@H](Cc1ccccc1)NC(=O)[C@H](CC(=O)O)NC(=O)[C@H](CCC(N)=O)NC(=O)[C@H](C)NC(=O)[C@H](CCCNC(=N)N)NC(=O)[C@H](CCCCNC(=O)COCCOCCNC(=O)COCCOCCNC(=O)CC[C@H](NC(=O)CCCCCCCCCCCCCCCCC(=O)O)C(=O)O)NC(=O)[C@H](CO)NC(=O)[C@H](CCC(=O)O)NC(=O)[C@H](CC(C)C)NC(=O)[C@](C)(Cc1ccccc1)NC(=O)[C@H](CCCCN)NC(=O)[C@H](CO)NC(=O)[C@@H](NC(=O)[C@H](CC(=O)O)NC(=O)[C@H](CO)NC(=O)[C@@H](NC(=O)[C@H](Cc1ccccc1)NC(=O)[C@@H](NC(=O)CNC(=O)[C@H](CCC(N)=O)NC(=O)C(C)(C)NC(=O)[C@@H](N)Cc1c[nH]cn1)[C@@H](C)O)[C@@H](C)O)C(C)C)C(C)C)C(=O)N[C@@H](CC(C)C)C(=O)NC(C)(C)C(=O)N[C@@H](CCC(=O)O)C(=O)O [Peptide 173] (H-H[Aib]QGTFTSDVSK[αMeF]LESK([AEEA-AEEA-γGlu-C18 diacid])RAQDFVRWLL[Aib]E-OH; N-terminus assumed)
0.0684 | 58.4 | 2.02 | CC(C)C[C@H](NC(=O)[C@H](Cc1c[nH]c2ccccc12)NC(=O)[C@H](CCCNC(=N)N)NC(=O)[C@@H](NC(=O)[C@H](Cc1ccccc1)NC(=O)[C@H](CC(=O)O)NC(=O)[C@H](CCC(N)=O)NC(=O)[C@H](C)NC(=O)[C@H](CCCNC(=N)N)NC(=O)[C@H](CCCCNC(=O)COCCOCCNC(=O)COCCOCCNC(=O)CC[C@H](NC(=O)CCCCCCCCCCCCCCCCC(=O)O)C(=O)O)NC(=O)[C@H](CO)NC(=O)[C@H](CC(=O)O)NC(=O)[C@H](CC(C)C)NC(=O)[C@](C)(Cc1ccccc1)NC(=O)[C@H](CCCCN)NC(=O)[C@H](CO)NC(=O)[C@@H](NC(=O)[C@H](CC(=O)O)NC(=O)[C@H](CO)NC(=O)[C@@H](NC(=O)[C@H](Cc1ccccc1)NC(=O)[C@@H](NC(=O)CNC(=O)[C@H](CCC(N)=O)NC(=O)C(C)(C)NC(=O)[C@@H](N)Cc1c[nH]cn1)[C@@H](C)O)[C@@H](C)O)C(C)C)C(C)C)C(=O)N[C@@H](C)C(=O)NC(C)(C)C(=O)N[C@H](C(=O)N[C@@H](CCC(=O)O)C(=O)O)[C@@H](C)O [Peptide 175] (H-H[Aib]QGTFTSDVSK[αMeF]LDSK([AEEA-AEEA-γGlu-C18 diacid])RAQDFVRWLA[Aib]TE-OH)
0.0599 | 15.9 | 0.48 | CC(C)C[C@H](NC(=O)[C@H](Cc1c[nH]c2ccccc12)NC(=O)[C@H](CCCNC(=N)N)NC(=O)[C@@H](NC(=O)[C@H](Cc1ccccc1)NC(=O)[C@H](CC(=O)O)NC(=O)[C@H](CCC(N)=O)NC(=O)[C@H](C)NC(=O)[C@H](CCCNC(=N)N)NC(=O)[C@H](CCCCNC(=O)COCCOCCNC(=O)COCCOCCNC(=O)CC[C@H](NC(=O)CCCCCCCCCCCCCCCCC(=O)O)C(=O)O)NC(=O)[C@H](CO)NC(=O)[C@H](CC(=O)O)NC(=O)[C@H](CC(C)C)NC(=O)[C@](C)(Cc1ccccc1)NC(=O)[C@H](CCCCN)NC(=O)[C@H](CO)NC(=O)[C@@H](NC(=O)[C@H](CC(=O)O)NC(=O)[C@H](CO)NC(=O)[C@@H](NC(=O)[C@H](Cc1ccccc1)NC(=O)[C@@H](NC(=O)CNC(=O)[C@H](CCC(N)=O)NC(=O)C(C)(C)NC(=O)[C@@H](N)Cc1c[nH]cn1)[C@@H](C)O)[C@@H](C)O)C(C)C)C(C)C)C(=O)N[C@@H](CC(C)C)C(=O)NC(C)(C)C(=O)N[C@H](C(=O)N[C@@H](C)C(=O)O)[C@@H](C)O [Peptide 176] (H-H[Aib]QGTFTSDVSK[αMeF]LDSK([AEEA-AEEA-γGlu-C18 diacid])RAQDFVRWLL[Aib]TA-OH; N-terminus assumed)
